The text below walks through data of ChEMBL document CHEMBL2034837, “Discovery of Natural Phenols as G Protein-Coupled Receptor-35 (GPR35) Agonists” (ACS Med Chem Lett, 2012).

The target of assay [1] is T1, G-protein coupled receptor 35 (Homo sapiens, UniProt Q9HC97). Kind of assay: Agonist activity at GPR35 receptor in human U2OS cells coexpressing Gal4-VP16-TEV assessed as beta arrestin translocation after 5 hrs by beta lactamase reporter gene assay. The format is functional, cell-based. A general note: A reporter such as luciferase makes a cellular process visible.
T1 sequence (Q9HC97 whole entry, the tested form may be a part): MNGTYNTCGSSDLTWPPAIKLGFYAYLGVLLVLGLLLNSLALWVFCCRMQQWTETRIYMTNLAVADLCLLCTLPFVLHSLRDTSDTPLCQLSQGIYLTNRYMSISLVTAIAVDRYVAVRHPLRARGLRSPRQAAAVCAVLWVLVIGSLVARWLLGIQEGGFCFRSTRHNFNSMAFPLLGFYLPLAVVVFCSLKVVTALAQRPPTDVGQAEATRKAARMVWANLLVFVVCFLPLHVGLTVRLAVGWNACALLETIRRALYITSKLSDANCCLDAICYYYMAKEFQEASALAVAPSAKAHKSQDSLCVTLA

The target in assay [2] is T1, G-protein coupled receptor 35. As to the kind of experiment: Agonist activity at GPR35 receptor in human HT-29 cells assessed as shift in resonant wavelength of biosensor stimulation after 10 mins by dynamic mass redistribution assay relative to control. The format is functional, cell-based.
Assay [3] shares this target. Kind of assay: Agonist activity at GPR35 receptor in human U2OS cells coexpressing Gal4-VP16-TEV assessed as beta arrestin translocation after 5 hrs by beta lactamase reporter gene assay relative to control. It is filed as functional, cell-based.
For assay [4] the target is unchanged. As to the kind of experiment: Agonist activity at GPR35 receptor in human HT-29 cells after 10 mins by dynamic mass redistribution assay. It is filed as functional, cell-based.
Assay [5] has the same target. As to the kind of experiment: Partial agonist activity at GPR35 receptor in human U2OS cells coexpressing Gal4-VP16-TEV assessed as beta arrestin translocation after 5 hrs by beta lactamase reporter gene assay. It is filed as functional, cell-based.
Assay [6] has the same target. As to the kind of experiment: Agonist activity at GPR35 receptor in human HT-29 cells at 32 uM after 10 mins by dynamic mass redistribution assay in the presence of SPB05142. The format is functional, cell-based.
Assay [7] has the same target. Kind of assay: Desensitization of GPR35 receptor in human HT-29 cells assessed as inhibition of zaprinast-induced dynamic mass redistribution after 10 mins. It is filed as cell-based.
Assay [8] has the same target. As to the kind of experiment: Agonist activity at GPR35 receptor in human HT-29 cells at 4 uM after 10 mins by dynamic mass redistribution assay in the presence of SPB05142. It is filed as functional, cell-based.
For assay [9] the target is unchanged. Kind of assay: Agonist activity at GPR35 receptor in human HT-29 cells at 2 uM after 10 mins by dynamic mass redistribution assay in the presence of SPB05142. It is filed as functional, cell-based.
Assay [10] has the same target. As to the kind of experiment: Agonist activity at GPR35 receptor in human HT-29 cells at 16 uM after 10 mins by dynamic mass redistribution assay in the presence of SPB05142. It is filed as functional, cell-based.
For assay [11] the target is unchanged. As to the kind of experiment: Agonist activity at GPR35 receptor in human HT-29 cells at 8 uM after 10 mins by dynamic mass redistribution assay in the presence of SPB05142. It is filed as functional, cell-based.
Assay [12] shares this target. Kind of assay: Partial agonist activity at GPR35 receptor in human HT-29 cells after 10 mins by dynamic mass redistribution assay. It is filed as functional, cell-based.

The source made the active and inactive calls. The rule behind the calls is not given here.

Regarding `Cc1c(C(=O)O)sc2c(Br)csc12`, the concentration giving a half-maximal response (EC50) (commonly the midpoint of the concentration-response curve) in assay [1] turned out to be 17.6 µM. Also, in assay [2], the Efficacy worked out at 283 picometer. Further, in [3], the Ratio was found to be 13.9.

Turning to `CCCOc1ccccc1-c1nc2[nH]nnc2c(=O)[nH]1`, in [2], the Efficacy was found to be 269 picometer.

For the compound `O=C(O)c1cccnc1Nc1cccc(C(F)(F)F)c1`, the Activity entry in [4] and in assay [7] was “Dose-dependent effect” throughout. Besides, the outcome in [5] was Active. Also, the outcome in [6] was inactive. For the same compound, in [2], the Efficacy is 260 picometer.

For `O=C(O)c1cc(O)c(=O)c2c(O)c(O)ccc2c1` [7-DESHYDROXYPYROGALLIN-4-CARBOXYLIC ACID], the EC50 stood at 54 nM in [4] and 12.4 µM in assay [1]. Moreover, the half-maximal inhibitory concentration (IC50) (usually the concentration that inhibits the measured activity by half) in assay [7] stood at 0.11 µM. Moreover, in assay [2], the Efficacy worked out at 233 picometer. In [3], the Ratio was 10.9. Further, in assay [8], the result was inactive.

As to `O=c1cc(-c2ccccc2)oc2cc(O)c(O)c(O)c12` [BAICALEIN], the EC50 worked out at 10300 nM in assay [4] and 22.7 µM in assay [1]. For the same compound, the outcome in [5] was Active. Further, the outcome in assay [6] was inactive. Further, the concentration for half-maximal inhibition (IC50) in [7] is 28.2 µM. Further, the Efficacy in [2] amounted to 248 picometer. The Ratio in [3] was 2.1.

For the compound `O=c1oc2c(O)c(O)cc3c(=O)oc4c(O)c(O)cc1c4c23` [ELLAGIC ACID], the EC50 was 110 nM in assay [4] and 2.96 µM in assay [1]. Besides, the half-inhibitory concentration (IC50) in [7] was 0.1 µM. In addition, the Efficacy in [2] came out at 319 picometer. In addition, the Ratio in assay [3] turned out to be 3.4. In addition, the result in assay [9] was inactive.

Consider `O=C1C=C2CC3(O)COc4c(ccc(O)c4O)C3=C2C=C1O` (stereo unspecified) [HEMATEIN], for which the half-maximal effective concentration (EC50) in assay [4] was determined as 11100 nM; in [1], 4.7 µM. Further, in assay [7], the IC50 was determined as 30.4 µM. Moreover, the Efficacy in assay [2] was determined as 391 picometer. The Ratio in assay [3] amounted to 2.1. For the same compound, the outcome in [10] was inactive.

For the compound `CC(=O)NCCc1ccc(O)c(-c2c(O)c(O)c3c(c2O)C(=O)c2c(cc(O)c(C(=O)O)c2C(=O)O)C3=O)c1` [LACCACID ACID A], the half-maximal effective concentration (EC50) in assay [4] was found to be 390 nM; in assay [1] it was 51.5 µM. For the same compound, in assay [6], the outcome was inactive. The 50% inhibitory concentration (IC50) in assay [7] is 0.39 µM. Also, the Efficacy in assay [2] was 263 picometer. Moreover, the Ratio in [3] came out at 3.5.

As for `CC(C)=CCC1=C(O)C(=O)c2ccccc2C1=O` [LAPACHOL], the EC50 came out at 2840 nM in assay [4] and 47.9 µM in [1]. In addition, the IC50 in [7] is 4.66 µM. Besides, the Efficacy in assay [2] is 328 picometer. In addition, in assay [3], the Ratio was determined as 8.7. Besides, the outcome in assay [11] was inactive.

On to `CCCCCc1c2c(cc(O)c1C(=O)O)OC(=O)c1c(cc(OC)cc1C(=O)CCCC)O2` [LOBARIC ACID], for which the EC50 amounted to 2390 nM in assay [4] and 17.6 µM in assay [1]. Also, the IC50 in [7] amounted to 4.54 µM. For the same compound, the Efficacy in assay [2] came to 317 picometer. In addition, in assay [3], the Ratio was found to be 2. In addition, the result in [10] was inactive.

In the case of `O=c1cc(-c2ccc(O)c(O)c2)oc2cc(O)cc(O)c12` [LUTEOLIN], the values for the 50% effective concentration (EC50) in assay [4] and in assay [1] were 7240 nM and 3.2 µM, respectively. The result in [12] and in [5] was Active. Moreover, the outcome in [6] was inactive. Moreover, the half-inhibitory concentration (IC50) in [7] was 18.6 µM. In assay [2], the Efficacy came to 68 picometer. The Ratio in assay [3] stood at 1.5.

With `O=c1c(O)c(-c2ccc(O)cc2O)oc2cc(O)cc(O)c12` [MORIN], the EC50 in assay [4] was 1330 nM; in assay [1], 11.2 µM. Also, the IC50 in assay [7] was 1.6 µM. Besides, the Efficacy in assay [2] worked out at 284 picometer. In addition, the Ratio in assay [3] worked out at 9.8. In [11], the outcome was inactive.

With `O=c1c(O)c(-c2cc(O)c(O)c(O)c2)oc2cc(O)cc(O)c12` [MYRICETIN], the concentration giving a half-maximal response (EC50) worked out at 3020 nM in assay [4] and 14.7 µM in assay [1]. Besides, the result in assay [12] was Active. In assay [7], the concentration for half-maximal inhibition (IC50) came to 2.12 µM. The Efficacy in assay [2] turned out to be 224 picometer. For the same compound, the Ratio in assay [3] was 9.2. Moreover, the result in assay [11] was inactive.

Regarding `O=c1c(O)c(-c2ccc(O)c(O)c2)oc2cc(O)cc(O)c12` [QUERCETIN], the EC50 is 8020 nM in [4] and 5.93 µM in assay [1]. For the same compound, the result in [12] was Active. Moreover, the result in [6] was inactive. The IC50 in assay [7] came out at 15.4 µM. Moreover, the Efficacy in [2] is 40 picometer. Moreover, the Ratio in [3] was determined as 2.3.

`N#C/C(=C\c1ccc(O)cc1)C(=O)O` [alpha-CYANO-4-HYDROXYCINNAMIC ACID]: the EC50 came out at 9800 nM in [4] and 70.7 µM in [1]. Further, the IC50 in assay [7] came out at 30.4 µM. In assay [2], the Efficacy was 331 picometer. Also, the Ratio in assay [3] stood at 4. In assay [11], the outcome was inactive.
